Test results as given in paper PMC5506005, “A novel protein kinase inhibitor IMB-YH-8 with anti-tuberculosis activity” (Scientific Reports, 2017).
In brackets after ≈: the same amount, converted by molar mass. Where two headings read alike, the source gives them in different places.

Key:
PknH = PknH (Mycobacterium tuberculosis, UniProt P9WI71); assay: In vitro protein kinase assay (Kinase Glo), auto-phosphorylation of PknH; type: biochemical
PknB [1] = biological target: T1, PknB (Mycobacterium tuberculosis, UniProt P9WI81); assay: Phosphorylation of GarA by PknB, Phos-tag SDS-PAGE; type: biochemical, M. tuberculosis; conditions: non-phosphorylated GarA increased in a dose-dependent manner
T1 sequence (P9WI81 11-274 limits assumed): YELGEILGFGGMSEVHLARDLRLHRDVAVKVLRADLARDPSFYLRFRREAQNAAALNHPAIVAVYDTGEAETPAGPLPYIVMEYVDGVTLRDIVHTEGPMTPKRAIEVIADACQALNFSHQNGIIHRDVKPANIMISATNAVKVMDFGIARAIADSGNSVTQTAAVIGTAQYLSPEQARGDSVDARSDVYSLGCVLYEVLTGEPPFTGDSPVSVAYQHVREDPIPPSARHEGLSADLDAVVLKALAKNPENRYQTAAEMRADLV
Method: In vitro phosphorylation of GarA (5 μM) by PknB (3 μM) was carried out in 50 μl reaction mixture (25 mM Tris-HCl (pH = 7.4), 5 mM MgCl2, 2 mM MnCl2). The reaction was initiated with the additional of 100 μM ATP and incubated at 37 °C for 3 hours. The reaction was terminated with the addition of SDS-PAGE sample buffer and heating the mixture at 100 °C for 5 min. The reaction mixtures were analyzed by 12% SDS-PAGE with or without Phos-tag SDS-PAGE to differentiate the phosphorylated and non-phosphorylated GarA. Phos-tag SDS-PAGE was performed with gel containing 20 μM Phos-tag acrylamide (Wako Pure Chemical Industries, Japan) and 100 µM MnCl2 according to the manufacturer’s instructions. Electrophoresis was performed at 4 °C in Tris-glycine SDS-PAGE running buffer at 30 mA for 2 h. Images were adjusted for contrast and brightness using Bio-Rad image lab software version 2.01.

THP-1 cells = conditions: calculated as the CC50/MIC (THP-1 / H37Rv)
PknF = PknF (Mycobacterium tuberculosis, UniProt P9WI75); assay: In vitro protein kinase assay (Kinase Glo), auto-phosphorylation of PknF; type: biochemical, M. tuberculosis
PknB [2] = biological target: T1, PknB; assay: In vitro protein kinase assay (Kinase Glo), auto-phosphorylation of PknB; type: biochemical, M. tuberculosis; conditions: non-radioactive Kinase Glo assay, 100 μM ATP
in vitro = conditions: human
Mycobacterium marinum = system: Mycobacterium marinum; parameters: method as in earlier work; conditions: previous high throughput screening study; cited from earlier work
[3] = cited from earlier work
PknB [4] = biological target: T1, PknB; assay: Surface plasmon resonance (BIAcore) binding to PknB; parameters: species or system M. tuberculosis; conditions: single cycle kinetics, 1:1 binding model, 25 °C, read-out: Kd for binding to PknB (SPR)
[5] = system: clinical isolates of M. tuberculosis; assay: microbe, parasite or virus in culture; type: cell-based; conditions: Mycobacterium tuberculosis, clinical isolate 31251, sensitive
[6] = system: intracellular M. tuberculosis H37Rv; assay: Intracellular activity assay in infected THP-1 cells (CFU); type: cell-based; conditions: 3 days; for Log10CFU: infected THP-1 cells, mean ± SD, untreated 5.03 ± 0.12
[7] = system: M. tuberculosis H37Rv gene transcripts (PknB/SigH regulatory pathways); type: cell-based; conditions: 2.5 μg/ml, 4 h; for Real-time reverse transcription PCR Normalized ΔCt (mean ± SD): normalized to sigA mRNA
Mycobacterium smegmatis = system: Mycobacterium smegmatis; parameters: method as in earlier work; conditions: previous high throughput screening study; cited from earlier work
PknA = biological target: T2, PknA (Mycobacterium tuberculosis, UniProt P9WI83); assay: In vitro protein kinase assay (Kinase Glo), auto-phosphorylation of PknA; type: biochemical, M. tuberculosis
T2 sequence (P9WI83 1-431): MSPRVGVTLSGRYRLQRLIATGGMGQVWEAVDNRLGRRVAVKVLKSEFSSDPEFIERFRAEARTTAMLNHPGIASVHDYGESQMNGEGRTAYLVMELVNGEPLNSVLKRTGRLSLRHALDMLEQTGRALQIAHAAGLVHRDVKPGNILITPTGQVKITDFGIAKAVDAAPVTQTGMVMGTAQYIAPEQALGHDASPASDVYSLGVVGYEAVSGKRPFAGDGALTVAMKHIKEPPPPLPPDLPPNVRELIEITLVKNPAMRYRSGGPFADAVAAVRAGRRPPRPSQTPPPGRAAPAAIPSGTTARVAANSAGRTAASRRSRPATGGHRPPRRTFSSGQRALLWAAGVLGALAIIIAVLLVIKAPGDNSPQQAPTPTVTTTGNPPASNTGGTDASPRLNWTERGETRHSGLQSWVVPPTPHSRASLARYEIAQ

PknB [8] = biological target: PknB (Mycobacterium tuberculosis, UniProt P9WI81); assay: biochemical; type: binding, M. tuberculosis
Target sequence in this assay (P9WI81 1-279 limits assumed): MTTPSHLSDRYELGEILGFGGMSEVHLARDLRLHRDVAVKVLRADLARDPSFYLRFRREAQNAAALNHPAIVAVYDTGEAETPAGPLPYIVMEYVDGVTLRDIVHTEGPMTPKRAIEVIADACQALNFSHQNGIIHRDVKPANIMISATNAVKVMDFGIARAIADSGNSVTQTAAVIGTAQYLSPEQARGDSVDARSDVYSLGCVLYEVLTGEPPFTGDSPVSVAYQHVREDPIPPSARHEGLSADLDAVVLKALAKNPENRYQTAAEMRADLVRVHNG

M. tuberculosis H37Rv [9] = assay: Scanning electron microscopy of cell morphology; type: cell-based; conditions: 1 μg/ml for 5 days, SEM
Method: To determine whether IMB-YH-8 affects the morphology of M. tuberculosis H37Rv, scanning electron microscopy (SEM) was performed. H37Rv was grown to early log phase (optical density at 600 nm, ~0.2). Then 1 μg/ml IMB-YH-8 was added to treat cells, followed by incubation at 37 °C for 5 days. Cells were harvested by low-speed centrifugation and washed in 0.1 M phosphate buffer (pH 7.4). The cells were then fixed in 0.1 M phosphate buffer (pH 7.4) containing 2.5% glutaraldehyde and 0.5% paraformaldehyde. The samples were submitted to the Instrument Center of Institute of Microbiology, Chinese Academy of Sciences for further analysis. Observations were carried out using a SEM (SU8010; Hitachi, Tokyo, Japan). Untreated H37Rv were also processed as control.

[10] = system: M. tuberculosis gene transcripts (PknB/SigH regulatory pathways); assay: Gene expression by microarray; type: cell-based; conditions: 4 h; for fold induction at 2.5 µg/mL: Mycobacterium tuberculosis; for Regulation: 2.5 μg/ml
Method: The drug-treated (2.5 μg/ml IMB-YH-8), together with control (DMSO) mycobacterial cultures, were incubated at 37 °C for 4 h. Total RNAs were isolated by RiboPure^TM-Bacteria Kit (Life Technology, AM1925) according to the manufacturer’s instructions. The quantity and quality of each RNA sample was determined using NanoDrop ND-2000 spectrophotometer (Thermo Scientific, Wilmington, DE) and Agilent 2100 Bioanalyzer (Agilent Technologies, Santa Clara, CA).
The qualified RNA samples were labeled and hybridized on Agilent 4 × 44 K Custom design Gene Expression Microarray according to manufacturer protocol (Agilent, Santa Clara, CA). In brief, 100 ng of each RNA sample was amplified to cRNA and labeled with Cy-3 using Agilent Low Input Quick Amp Labeling Kit. The labeled samples were hybridized for 16 hours at 10 rotations per minute. After hybridization, the arrays were washed and scanned by Agilent scanner and then the image was analyzed by Agilent Feature Extraction v11.5. Data obtained from Feature Extraction were imported to GeneSpring GX version 13.1 (Agilent Technologies, Santa Clara, CA) for 75th percentile shift and baseline to median of all samples normalization.

PknG = PknG (Mycobacterium tuberculosis, UniProt P9WI73); assay: In vitro protein kinase assay (Kinase Glo), auto-phosphorylation of PknG; type: biochemical, M. tuberculosis
human kinase Akt1 = human kinase Akt1 (Homo sapiens, UniProt P31749); assay: In vitro protein kinase assay (Kinase Glo), auto-phosphorylation of Akt1; type: biochemical
M. tuberculosis H37Rv [11] = assay: MIC by microplate Alamar blue assay (MABA), H37Rv; type: cell-based; conditions: Mycobacterium tuberculosis

Chain of PknF (P9WI75 whole entry): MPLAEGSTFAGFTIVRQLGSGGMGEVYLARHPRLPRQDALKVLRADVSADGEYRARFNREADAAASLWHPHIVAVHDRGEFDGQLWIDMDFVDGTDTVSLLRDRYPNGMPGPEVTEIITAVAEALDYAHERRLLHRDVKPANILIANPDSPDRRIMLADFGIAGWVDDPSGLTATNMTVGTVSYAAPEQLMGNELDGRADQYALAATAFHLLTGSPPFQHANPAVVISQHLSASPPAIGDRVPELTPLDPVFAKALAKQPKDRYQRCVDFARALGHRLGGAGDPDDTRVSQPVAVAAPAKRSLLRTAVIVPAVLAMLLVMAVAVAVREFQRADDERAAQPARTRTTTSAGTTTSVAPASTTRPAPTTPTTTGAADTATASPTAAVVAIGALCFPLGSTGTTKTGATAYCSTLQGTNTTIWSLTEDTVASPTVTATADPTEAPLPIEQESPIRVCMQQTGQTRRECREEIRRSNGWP
Chain of human kinase Akt1 (P31749 whole entry): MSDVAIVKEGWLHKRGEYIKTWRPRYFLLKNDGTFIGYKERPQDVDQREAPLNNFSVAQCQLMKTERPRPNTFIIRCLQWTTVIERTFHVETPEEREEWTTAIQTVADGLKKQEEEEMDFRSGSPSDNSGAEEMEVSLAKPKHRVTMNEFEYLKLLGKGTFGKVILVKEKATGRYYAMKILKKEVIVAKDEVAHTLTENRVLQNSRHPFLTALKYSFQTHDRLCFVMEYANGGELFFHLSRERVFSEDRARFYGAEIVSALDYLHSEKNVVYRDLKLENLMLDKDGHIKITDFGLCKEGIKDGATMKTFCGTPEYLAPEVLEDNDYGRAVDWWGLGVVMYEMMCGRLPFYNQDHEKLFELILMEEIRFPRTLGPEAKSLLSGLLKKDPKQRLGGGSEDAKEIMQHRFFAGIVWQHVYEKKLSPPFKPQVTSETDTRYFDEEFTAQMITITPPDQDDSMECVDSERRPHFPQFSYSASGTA
Chain of PknH (P9WI71 whole entry): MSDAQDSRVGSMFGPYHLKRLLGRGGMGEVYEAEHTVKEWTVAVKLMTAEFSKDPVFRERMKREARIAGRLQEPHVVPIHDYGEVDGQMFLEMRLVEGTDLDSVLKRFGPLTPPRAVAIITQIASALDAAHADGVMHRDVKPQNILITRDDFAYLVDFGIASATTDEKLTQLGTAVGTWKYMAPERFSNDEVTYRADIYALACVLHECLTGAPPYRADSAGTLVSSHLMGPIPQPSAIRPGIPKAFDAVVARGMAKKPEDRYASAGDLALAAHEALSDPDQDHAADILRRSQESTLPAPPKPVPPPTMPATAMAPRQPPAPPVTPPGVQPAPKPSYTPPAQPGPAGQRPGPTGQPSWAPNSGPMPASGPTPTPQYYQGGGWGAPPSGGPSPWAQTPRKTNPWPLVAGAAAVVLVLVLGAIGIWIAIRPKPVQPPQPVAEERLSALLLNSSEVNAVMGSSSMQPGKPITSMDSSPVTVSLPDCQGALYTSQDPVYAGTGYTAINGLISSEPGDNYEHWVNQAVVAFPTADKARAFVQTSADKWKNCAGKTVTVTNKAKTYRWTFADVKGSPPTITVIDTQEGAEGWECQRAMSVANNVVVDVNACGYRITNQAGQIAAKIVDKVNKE
Chain of PknG (P9WI73 whole entry): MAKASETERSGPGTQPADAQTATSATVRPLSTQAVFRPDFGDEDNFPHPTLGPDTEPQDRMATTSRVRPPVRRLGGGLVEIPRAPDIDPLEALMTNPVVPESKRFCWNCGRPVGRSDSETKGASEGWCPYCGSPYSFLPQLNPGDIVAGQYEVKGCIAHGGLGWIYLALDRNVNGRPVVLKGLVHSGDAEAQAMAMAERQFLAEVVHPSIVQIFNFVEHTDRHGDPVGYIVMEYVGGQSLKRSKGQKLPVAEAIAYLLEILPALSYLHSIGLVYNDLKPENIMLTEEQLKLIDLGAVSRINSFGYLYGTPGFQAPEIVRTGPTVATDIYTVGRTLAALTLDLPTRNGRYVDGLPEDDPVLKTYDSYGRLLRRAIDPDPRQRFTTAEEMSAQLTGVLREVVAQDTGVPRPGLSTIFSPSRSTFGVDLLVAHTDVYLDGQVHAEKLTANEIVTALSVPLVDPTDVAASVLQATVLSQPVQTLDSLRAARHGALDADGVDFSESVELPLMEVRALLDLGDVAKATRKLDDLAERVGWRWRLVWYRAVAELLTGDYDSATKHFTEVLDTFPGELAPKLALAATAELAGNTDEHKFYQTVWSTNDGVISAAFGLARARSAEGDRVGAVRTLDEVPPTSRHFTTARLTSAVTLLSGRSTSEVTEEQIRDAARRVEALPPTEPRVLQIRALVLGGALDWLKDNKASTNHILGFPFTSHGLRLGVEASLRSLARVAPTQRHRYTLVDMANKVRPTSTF

With `COC(=O)/C=C/C(=O)c1ccc(OC)cc1` [IMB-YH-8] the IC50 (PknH) was > 640 µM, the “PknB-catalyzed phosphorylation of GarA” value (PknB [1]) was “inhibited” and the “SI, selectivity index” value (THP-1 cells) was 30.4. It also gave an IC50 (PknF) of 503 µM, an IC50 (PknB [2]) of 20.2 µM and a CC50 at 48 h (in vitro) of 7.61 µg/mL (≈ 34.6 µM). For the same compound, the “inhibition of Mycobacterium marinum” value (Mycobacterium marinum) was “inhibited”, the “time until serum concentrations fall below the therapeutic range” value ([3]; oral delivery of 200 mg/kg) was “less than 1 hour” and the “serum Cmax” value ([3]; rat, in vivo, po, 200 mg/kg) was “sub-microgram/ml”. For the same compound, the Kd (PknB [4]) was 25.3 µM, the MIC [5] was 0.25 µg/mL (≈ 1.14 µM) and the “reduction in CFU compared to untreated control” value (“reduction in CFU” below) ([6]; 0.5 µg/ml) was 0.18 log10. The Log10CFU ([6]; 0.5 μg/ml) was 4.85 ± 0.04, the “reduction in CFU” value ([6]; 1 µg/ml) was 0.62 log10 and the Log10CFU ([6]; 1 μg/ml) was 4.41 ± 0.12. For the same compound, the “reduction in CFU” value ([6]; 2 µg/ml) was 1.11 log10, the Log10CFU ([6]; 2 μg/ml) was 3.92 ± 0.11 and the “Real-time reverse transcription PCR Normalized ΔCt (mean ± SD)” value ([7]; gene Rv2466c) was 6.325 ± 2.51. For the same compound, the “Real-time reverse transcription PCR Mean fold change (2^ΔΔCt Value)” value ([7]; gene rshA (Rv3221A)) was 264.11, the “Real-time reverse transcription PCR Normalized ΔCt (mean ± SD)” value ([7]; gene rshA (Rv3221A)) was 8.045 ± 0.59 and the “Real-time reverse transcription PCR Mean fold change (2^ΔΔCt Value)” value ([7]; gene sigH (Rv3223c)) was 5.88. For the same compound, the “Real-time reverse transcription PCR Normalized ΔCt (mean ± SD)” value ([7]; gene sigH (Rv3223c)) was 2.555 ± 0.11, the “Real-time reverse transcription PCR Mean fold change (2^ΔΔCt Value)” value ([7]; gene trxB2 (Rv3913)) was 7.67 and the “Real-time reverse transcription PCR Normalized ΔCt (mean ± SD)” value ([7]; gene trxB2 (Rv3913)) was 2.940 ± 0.07. The “Real-time reverse transcription PCR Mean fold change (2^ΔΔCt Value)” value ([7]; gene trxC (Rv3914)) was 5.48, the “Real-time reverse transcription PCR Normalized ΔCt (mean ± SD)” value ([7]; gene trxC (Rv3914)) was 2.455 ± 0.06 and the “inhibition of Mycobacterium smegmatis” value (Mycobacterium smegmatis) was “inhibited”. The IC50 (PknA) was 44.3 µM, the Kd (PknB [8]) was 13.5 µM and the “ΔG of binding to PknB” value (PknB [8]; ITC, 25 °C) was -6.64 kcal/mol. For the same compound, the “ΔH of binding to PknB” value (PknB [8]; ITC, 25 °C) was -5.7 kcal/mol, the “−TΔS of binding to PknB” value (PknB [8]; ITC, 25 °C) was -0.94 kcal/mol and the “proportion of ruptured cells” value (M. tuberculosis H37Rv [9]) was 61.5%. The fold induction at 2.5 µg/mL ([10]; read-out: Fold induction in microarray (mean ± SD), gene Rv2466c, 2.5 μg/ml) was 6.86 ± 1.93, the fold induction at 2.5 µg/mL ([10]; read-out: Fold induction in microarray (mean ± SD), gene rshA (Rv3221A), 2.5 μg/ml) was 6.07 ± 0.33 and the fold induction at 2.5 µg/mL ([10]; read-out: Fold induction in microarray (mean ± SD), gene sigH (Rv3223c), 2.5 μg/ml) was 2.92 ± 0.09. The fold induction at 2.5 µg/mL ([10]; read-out: Fold induction in microarray (mean ± SD), gene trxB2 (Rv3913), 2.5 μg/ml) was 6.9 ± 0.75, the fold induction at 2.5 µg/mL ([10]; read-out: Fold induction in microarray (mean ± SD), gene trxC (Rv3914), 2.5 μg/ml) was 8.03 ± 0.33 and the Regulation ([10]; gene Rv2466c) was “Up”. The Regulation ([10]; gene rshA (Rv3221A)) was “Up”, the Regulation ([10]; gene sigH (Rv3223c)) was “Up” and the Regulation ([10]; gene trxB2 (Rv3913)) was “Up”. The Regulation ([10]; gene trxC (Rv3914)) was “Up”, the IC50 (PknG) was 349 µM and the IC50 (human kinase Akt1) was > 640 µM. The MIC (M. tuberculosis H37Rv [11]) was 0.25 µg/mL and the MIC (M. tuberculosis H37Rv [11]; converted from 0.25 μg/ml) was 1.14 µM.
Compound `NNC(=O)c1ccncc1` [INH, isoniazid, reference compound] has a Log10CFU ([6]; 0.5 μg/ml) of 3.24 ± 0.05, a Log10CFU ([6]; 1 μg/ml) of 3.14 ± 0.06 and a Log10CFU ([6]; 2 μg/ml) of 2.57 ± 0.14.
